Data published in patent publication US12115256B2, “Targeted liposomal gemcitabine and methods thereof” (L.E.A.F. HOLDINGS GROUP LLC, priority 2016, dated 2024).
Where two headings read alike, the source gives them in different places. Each block holds one compound with its values, some of them ahead of it.

Assays:
[1] = test system: NCI-H2452 lung (mesothelioma) cancer cells; test: MTS cell proliferation assay, NCI-H2452; type: cell-based; conditions: Homo sapiens, 96 h, 4 days, MTS (FIG. 2)
Text: (§1) Cells lines used in the experiments are commercially available from sources such as the ATCC (American Type Culture Collection of Manassas, Virginia, U.S.A). The cell lines, their ATCC accession numbers and growth conditions are listed below. • NCI-H2452 (ATCC® CRL-5946TH); RPMI-1640 (Cat. #30-2001); 10% HI FBS; 1% Pen/Strep; 1% L-Glutamine. • PANC-1 (ATCC® CRL-1469TH); Dulbecco's Modified Eagle's Medium (DMEM) (ATCC® 30-2002TM) 10% HI FBS; 1% Pen/Strep; 1% L-Glutamine • SKBR3; McCoy 5A Medium; 10% HI FBS; 1% Pen/Strep; 1% L-Glutamine.
(§2) Cancer cell lines were seeded in 96 well plates on day 0 at optimal cell numbers. On day 1, drug formulations were added at 2-fold serial dilutions. The cells were incubated for 3-5 days and the level of inhibition of cellular proliferation was measured by the MTS assay (3-(4,5-dimethylthiazol-2-yl)-5-(3-carboxymethoxyphenyl)-2-(4-sulfophenyl)-2H-tetrazolium assay). The commercially available MTS Cell Proliferation Assay Kit (Colorimetric) (197010) is a colorimetric sensitive quantification of viable cells in proliferation and cytotoxicity assay. […]
(§3) On day 4, the effect on cellular proliferation was measured with MTS assay. […] The plates were incubated for 2 hours at 37° C. and the absorbance was measured at 490 nm. […]

[2] = test system: SKBR3 breast cancer cells; test: MTS cell proliferation assay, SKBR3; type: cell-based; conditions: Homo sapiens, SK-BR-3, 96 h, 4 days
Text: as §1, §2, §3

[3] = test system: CD34+ stem cells (hematopoietic progenitor cells) differentiating into neutrophils; type: cell-based; conditions: human, 2 days
Text: The level of a molecule called CD15 is elevated on more mature neutrophils. This molecule is elevated on cells in the circles drawn on the plots.
FIG. 8. Neutrophil differentiation assay. One of the major side effects from gemcitabine treatment is the reduction of neutrophils in the bloodstream that counter infections. This is the result of CD34+ stem cells not differentiating, or developing, into mature neutrophils in the bone marrow. We measured the effect of targeted liposomal gemcitabine on neutrophil differentiation compared to the same dose of gemcitabine (10 and 50 μM.) Hematopoietic progenitor cells (CD34+) were purchased and treated with a panel of growth factors to induce neutrophil differentiation.
CD34+ stem cells were cultured without (A) or with (B) cytokines (growth factors) that induce neutrophil differentiation in vitro, including stem cell factor, IL-3, and […] for 2 days. […] By day 2, there is a dramatic increase in mature neutrophils depicted in the oval. […] The cells within the drawn gate (FIG. 8B) are larger, more complex maturing neutrophils that are lacking in FIG. 8A.
In more detail, experiments were performed as follows: CD34+ stem cells were obtained from ATCC. CD34+ cells were thawed at 37° C. for 1 minute. While on ice, the cells were transferred to cold stem cell medium (“StemSpan SFEM”—Stem Cell Tech. cat. #9650), 10% heat […] fetal bovine serum (HI FBS.) Each vial contained approximated 5×10^5 cell/ml. The cells were placed in 96 well tissue culture plates 35,000 cell/well.
The neutrophils GROWTH media contained 100 ng/ml of stem cell factor human (SCF-Sigma H8416, lot #MKBT8036V), 20 ng/ml of granulocyte colony-stimulation factor, human (G-CSF-Sigma H5541, lot #SLBC9602V), 10 ng/ml of IL3 recombinant human (Sigma SRP3090, lot #1008AFC13) in StemSpam media as above.
The cells were also treated as follows 1) StemSpam media alone with no growth cytokines; 2) StemSpam media+growth cytokines, and 3) Gemcitabine, Targeted Liposomal Gemcitabine and non-Targeted Liposomal Gemcitabine in amounts as indicated. […]

[4] = test system: PANC-1 pancreatic cancer cells; test: MTS cell proliferation assay, PANC-1; type: cell-based; conditions: Homo sapiens, 96 h, 4 days
Text: as §1, §2, §3

[5] = test system: HPAF-II pancreatic cancer cells; test: MTS cell proliferation assay, HPAF-II; type: cell-based; conditions: Homo sapiens, 96 h, 4 days
Experimental: HPAF-II ATCC CRL-1997; Eagle's Minimum Essential Medium (EMEM) (ATCC® 30-2003Tm)); 10% HI FBS; 1% Pen/Strep; 1% L-Glutamine.
Cancer cell lines were seeded in 96 well plates on day 0 at optimal cell numbers. On day 1, drug formulations were added at 2-fold serial dilutions. The cells were incubated for 3-5 days and the level of inhibition of cellular proliferation was measured by the MTS assay (3-(4,5-dimethylthiazol-2-yl)-5-(3-carboxymethoxyphenyl)-2-(4-sulfophenyl)-2H-tetrazolium assay). The commercially available MTS Cell Proliferation Assay Kit (Colorimetric) (197010) is a colorimetric sensitive quantification of viable cells in proliferation and cytotoxicity assay. The assay is based on the reduction of MTS tetrazolium compound by viable cells to generate a colored formazan product that is soluble in cell culture media.
The MTS experiments are performed as follows: The night before, the cells are seeded according to the amount of cells required for each cell line in 96 well tissue culture plate. Final volume in each well is 100 μL (see Table of cell lines for reference; all cell lines obtained from ATCC).
The seeded cells are incubated at 37° C. and 5% CO 2 overnight. […]
as §3

[6] = target: T1, Reduced folate carrier (RFC) (Homo sapiens, UniProt P41440); conditions: read-out: Binding affinity, Km; cited from earlier work
T1 sequence (P41440 1-591): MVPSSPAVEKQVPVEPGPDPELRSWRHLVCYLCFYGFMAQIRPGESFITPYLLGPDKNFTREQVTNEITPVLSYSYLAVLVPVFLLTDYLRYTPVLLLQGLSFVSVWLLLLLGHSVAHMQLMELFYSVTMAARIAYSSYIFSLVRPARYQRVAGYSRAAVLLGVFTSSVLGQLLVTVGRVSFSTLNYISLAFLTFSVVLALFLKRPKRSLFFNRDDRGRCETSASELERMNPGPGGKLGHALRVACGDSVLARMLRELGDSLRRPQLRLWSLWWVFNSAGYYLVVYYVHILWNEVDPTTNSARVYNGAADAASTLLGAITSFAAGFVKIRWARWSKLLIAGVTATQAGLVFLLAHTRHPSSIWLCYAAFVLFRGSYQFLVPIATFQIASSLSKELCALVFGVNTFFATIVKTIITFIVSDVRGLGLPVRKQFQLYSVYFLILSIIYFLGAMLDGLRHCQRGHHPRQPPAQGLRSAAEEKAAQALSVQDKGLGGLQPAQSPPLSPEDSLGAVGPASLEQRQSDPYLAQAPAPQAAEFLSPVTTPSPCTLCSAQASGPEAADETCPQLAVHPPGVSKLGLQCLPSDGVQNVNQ

Folate receptor α (FRα) = Folate receptor α (FRα) (Homo sapiens, UniProt P15328); conditions: read-out: Binding affinity, Kd; cited from earlier work
Folate receptor α (FRα), sequence (P15328 25-234, species assumed): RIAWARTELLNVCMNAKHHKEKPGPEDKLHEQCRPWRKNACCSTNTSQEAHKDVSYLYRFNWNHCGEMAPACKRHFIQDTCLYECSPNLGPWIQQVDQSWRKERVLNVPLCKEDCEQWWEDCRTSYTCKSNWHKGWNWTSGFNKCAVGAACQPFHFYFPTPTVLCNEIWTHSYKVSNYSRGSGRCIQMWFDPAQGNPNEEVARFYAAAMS

IC50 [1]: 30.4 µM | IC50 [2]: 297 µM | Number of live cells within the neutrophil gate (CD15+) [3]: less than 100 | Percentage of live cells within the neutrophil gate ([3]; 10 μM): less than 5% | Percentage of live cells within the neutrophil gate ([3]; 50 μM): less than 20% | IC50 [4]: 11 µM | IC50 [5]: 9.11 µM
Structure (SMILES): Nc1ccn([C@@H]2O[C@H](CO)[C@@H](O)C2(F)F)c(=O)n1 [Gemcitabine, gemcitabine]

Structure (SMILES): CN1c2c(nc(N)[nH]c2=O)NCC1CNc1ccc(C(=O)N[C@@H](CCC(=O)O)C(=O)O)cc1 (some centres unmarked) [5-mTHF, 5-methyltetrahydrofolate]
Km [6]: 1 to 10 µM | Kd (Folate receptor α (FRα)): 1 to 10 nM

Structure (SMILES): Nc1nc2ncc(CNc3ccc(C(=O)N[C@@H](CCC(=O)O)C(=O)O)cc3)nc2c(=O)[nH]1 [folic acid]
Km [6]: 200 to 400 µM

Structure (SMILES): CN(Cc1cnc2nc(N)nc(N)c2n1)c1ccc(C(=O)N[C@@H](CCC(=O)O)C(=O)O)cc1 [methotrexate]
Km [6]: 1 to 5 µM
